Like-named read-outs stand apart in the source and are kept apart here. Where a SMILES comes first, the peptide text is derived from it. Bridges are numbered along the chain shown (N, C = ends). [ ]: non-standard residue; d: D form. The star is where a group is joined. hPhe(3-Cl-4-CF3) = N[C@@H](CCc1ccc(C(F)(F)F)c(Cl)c1)C(=O)O; NPrPhe(4-CF3) = CCCN[C@@H](Cc1ccc(C(F)(F)F)cc1)C(=O)O; NMeGly(cPent) = CN[C@H](C(=O)O)C1CCCC1; NMeD = CN[C@@H](CC(=O)O)C(=O)O; hPip = O=C(O)[C@@H]1CCCCCN1; Morpholide = C1CN(*)CCO1; Ac5c = NC1(C(=O)O)CCCC1; Sar = CNCC(=O)O
Assays:
[1] = target: GDP-bound NRAS wild-type protein (Homo sapiens, UniProt P01111); assay: Binding to NRAS by surface plasmon resonance (SPR), Single Cycle Kinetics; details: for NRAS/KRAS (ratio of KD value with respect to GDP-bound NRAS wild-type protein to KD value with respect to KRAS): SPR KD ratio NRAS/KRAS, class symbols
GDP-bound NRAS wild-type protein, sequence (P01111 whole entry): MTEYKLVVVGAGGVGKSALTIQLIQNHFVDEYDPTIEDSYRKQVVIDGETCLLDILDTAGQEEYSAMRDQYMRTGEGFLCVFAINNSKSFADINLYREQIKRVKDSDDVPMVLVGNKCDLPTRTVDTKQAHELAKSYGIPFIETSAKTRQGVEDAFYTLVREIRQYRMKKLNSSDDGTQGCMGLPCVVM

[2] = target: GDP-bound KRAS wild-type protein (Homo sapiens, UniProt P01116); assay: Binding to KRAS by surface plasmon resonance (SPR), Single Cycle Kinetics; details: GDP-bound KRAS wild-type protein, read-out: KRAS KD
GDP-bound KRAS wild-type protein, sequence (P01116 whole entry): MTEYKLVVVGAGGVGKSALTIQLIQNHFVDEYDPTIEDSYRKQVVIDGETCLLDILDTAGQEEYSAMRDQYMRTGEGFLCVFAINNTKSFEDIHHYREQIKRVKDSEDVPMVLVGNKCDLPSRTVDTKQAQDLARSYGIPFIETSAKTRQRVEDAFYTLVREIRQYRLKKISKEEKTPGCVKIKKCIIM

[3] = target: GDP-bound HRAS wild-type protein (Homo sapiens, UniProt P01112); assay: Binding to HRAS by surface plasmon resonance (SPR), Single Cycle Kinetics; details: for HRAS/KRAS (ratio of KD value with respect to GDP-bound HRAS wild-type protein to KD value with respect to KRAS): SPR KD ratio HRAS/KRAS, class symbols
GDP-bound HRAS wild-type protein, sequence (P01112 whole entry): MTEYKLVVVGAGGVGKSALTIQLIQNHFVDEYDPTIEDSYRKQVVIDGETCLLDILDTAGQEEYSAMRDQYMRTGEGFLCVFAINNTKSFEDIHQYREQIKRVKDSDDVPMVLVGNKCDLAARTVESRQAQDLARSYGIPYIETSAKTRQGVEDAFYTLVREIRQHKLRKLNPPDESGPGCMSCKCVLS

[4] = SPR Single Cycle Kinetics, 1:1 binding model
[5] = SPR, GDP-bound NRAS wild-type protein vs GDP-bound KRAS wild-type protein
[6] = SPR, GDP-bound HRAS wild-type protein vs GDP-bound KRAS wild-type protein

Row | Structure (SMILES) | Kd [2, 4] [nM] | NRAS/KRAS (ratio of KD value with respect to GDP-bound NRAS wild-type protein to KD value with respect to KRAS) [1] | HRAS/KRAS (ratio of KD value with respect to GDP-bound HRAS wild-type protein to KD value with respect to KRAS) [3] | further results
1 | C#CC[C@H]1C(=O)N[C@@H]([C@@H](C)CC)C(=O)N(C)CC(=O)N(C)[C@H]2C/C=C\CCN(C2=O)[C@@H](Cc2ccc(C(F)(F)F)cc2)C(=O)N(C)CC(=O)N[C@@H](CCc2ccc(C(F)(F)F)c(OC)c2)C(=O)N2CC[C@H]2C(=O)NC2(CCC2)C(=O)N(C)[C@@H](C2CCCC2)C(=O)N(C)[C@H](C(=O)N(C)C)CC(=O)N1C [PP2911] | 0.52 | A (a compound having 10 or more and less than 20 is denoted as A) | B (a compound having 3 or more and less than 10 is denoted as B) | –
2 | CCO[C@@H]1C[C@H]2C(=O)NC3(CC(C)(C)C3)C(=O)N(C)[C@@H](C3CCCC3)C(=O)N(C)[C@H](C(=O)N(C)CC)CC(=O)N(C)[C@H]3CCC/C=C/c4ccc(cc4)C[C@@H](C(=O)N(C)CC(=O)N[C@@H](CCc4cc(F)c(C(F)(F)F)c(F)c4)C(=O)N2C1)N1CC/C=C\C[C@@H](C1=O)N(C)C(=O)CN(C)C(=O)[C@H]([C@@H](C)CC)NC3=O [PP1835] | – | – | – | NRAS/KRAS (KD ratio) ([1]; ratio of KD for GDP-bound NRAS wild-type protein to KD for KRAS, SPR): A (a compound having 10 or more and less than 20 is denoted as A); Kd ([2]; SPR, Single Cycle Kinetics): 0.051 nM; HRAS/KRAS (KD ratio) ([3]; ratio of KD for GDP-bound HRAS wild-type protein to KD for KRAS, SPR): B (a compound having 3 or more and less than 10 is denoted as B)
3 | CCOC[C@H]1C(=O)N[C@@H]([C@@H](C)CC)C(=O)N(C)CC(=O)N(C)[C@H]2C/C=C\CCN(C2=O)[C@@H](CC2CCC(F)(F)CC2)C(=O)N(C)CC(=O)N[C@@H](CCc2ccc(C(F)(F)F)c(OC)c2)C(=O)N2C[C@H](OCC)C[C@H]2C(=O)N(C)C2(CCC2)C(=O)N(C)[C@@H](C(CC)CC)C(=O)N(C)[C@H](C(=O)N(C)C)CC(=O)N1C [PP2347] | – | – | – | NRAS/KRAS (ratio of KD value for NRAS to KD value for KRAS) [1, 5]: A (a compound having 10 or more and less than 20 is denoted as A); Kd ([2]; SPR, Single Cycle Kinetics): 1.6 nM; HRAS/KRAS (ratio of KD value for HRAS to KD value for KRAS) [3, 6]: A (a compound having 10 or more and less than 20 is denoted as A)

The next lines start with results.

Row | Kd [2, 4] [nM] | Structure (SMILES) | NRAS/KRAS (ratio of KD value with respect to GDP-bound NRAS wild-type protein to KD value with respect to KRAS) [1] | HRAS/KRAS (ratio of KD value with respect to GDP-bound HRAS wild-type protein to KD value with respect to KRAS) [3] | further results
4 | 0.44 | CCC[C@H]1C(=O)N[C@@H]([C@@H](C)CC)C(=O)N(C)CC(=O)N(C)[C@H]2C/C=C\CCN(C2=O)[C@@H](Cc2ccc(C(F)(F)F)cc2)C(=O)N(C)CC(=O)N[C@@H](CCc2ccc3sc(C)c(C)c3c2)C(=O)N2C[C@H](OCC)C[C@H]2C(=O)NC2(CC(C)(C)C2)C(=O)N(C)[C@@H](C(CC)CC)C(=O)N(C)[C@H](C(=O)N(C)C)CC(=O)N1C [PP2900] | AA (a compound having 20 or more is denoted as AA) | A (a compound having 10 or more and less than 20 is denoted as A) | –
5 | 0.015 | C=CC[C@H]1C(=O)N[C@@H]([C@@H](C)CC)C(=O)N(C)CC(=O)N(C)[C@H]2CCCCN(C2=O)[C@@H](Cc2ccc(C(F)(F)F)cc2)C(=O)N(C)CC(=O)N[C@@H](CCc2cc(F)c(C(F)(F)F)c(F)c2)C(=O)N2C[C@H](OCC)C[C@H]2C(=O)NC2(CCC2)C(=O)N(C)[C@@H](C2CCCC2)C(=O)N(C)[C@H](C(=O)N(C)C)CC(=O)N1C [PP0695] | – | – | NRAS/KRAS (ratio of KD value with respect to NRAS to KD value with respect to KRAS) [1, 5]: C (A compound having a KD ratio of 0.1 or more and less than 3 is denoted as C); HRAS/KRAS (ratio of KD value with respect to HRAS to KD value with respect to KRAS) [3, 6]: C (A compound having a KD ratio of 0.1 or more and less than 3 is denoted as C)
6 | 0.43 | CCO[C@@H]1C[C@H]2C(=O)NC3(CCC3)C(=O)N(C)[C@@H](CC(C)(C)C)C(=O)N(C)[C@H](C(=O)N3CCCC3)CC(=O)N(C)[C@@H](CC)C(=O)N[C@@H]([C@@H](C)CC)C(=O)N(C)CC(=O)N(C)[C@H]3C/C=C\CCN(C3=O)[C@@H](CC3CCCCC3)C(=O)N(C)CC(=O)N[C@@H](CCc3cc(F)c(C(F)(F)F)c(F)c3)C(=O)N2C1 [PP2772] | B (a compound having 3 or more and less than 10 is denoted as B) | B (a compound having 3 or more and less than 10 is denoted as B) | –
7 | 0.38 | CCCN1C(=O)CN(C)C(=O)CN(C)C(=O)[C@H]([C@@H](C)CC)NC(=O)[C@@H]2CCCCCN2C(=O)C[C@@H](C(=O)N2CCOCC2)N(C)C(=O)[C@H](C2CCCC2)N(C)C(=O)C2(CCCC2)NC(=O)[C@@H]2CCCN2C(=O)[C@H](CCc2ccc(C(F)(F)F)c(Cl)c2)NC(=O)CN(C)C(=O)[C@@H]1Cc1ccc(C(F)(F)F)cc1 [PP0247] ([hPip]I[Sar][Sar][NPrPhe(4-CF3)][Sar][hPhe(3-Cl-4-CF3)]P[Ac5c][NMeGly(cPent)][NMeD]-Morpholide; lactam N-11) | – | – | NRAS/KRAS (ratio of KD value for NRAS to KD value for KRAS) [1, 5]: B (a compound having 3 or more and less than 10 is denoted as B); HRAS/KRAS (ratio of KD value for HRAS to KD value for KRAS) [3, 6]: C (A compound having a KD ratio of 0.1 or more and less than 3 is denoted as C)

— patent US20240158446A1, “CYCLIC COMPOUND HAVING SELECTIVE INHIBITORY ACTION ON KRAS OVER HRAS AND NRAS” (CHUGAI SEIYAKU KABUSHIKI KAISHA, priority 2021, published 2024)
